Results from patent publication US20060079550A1, “Amino acid derivatives useful for the treatment of alzheimer's disease” (priority 2001, published 2006).
Like-named read-outs stand apart in the source and are kept apart here.

Molecular target: aspartyl proteases, in particular, beta-secretase
Assay: Ki of the compounds listed in Tables 1 and 2 (no method described)
Format: biochemical
[1] = Table 1, compounds of formula Ia, W is -(CH2)n-

Ki [1] | SMILES | Ki
> 0.1 µM | CC(C)CN(C(CCCCNC(=O)OCc1ccccc1)C(=O)O)S(=O)(=O)c1ccc(I)cc1 (racemic) [Compound No. 48, Nα-isobutyl-Nα-(4-iodobenzenesulfonyl)-Nε-benzyloxycarbonyl-DL-lysine] | 
49 µM | O=C(N[C@@H](CCNS(=O)(=O)c1ccc(Br)cc1)C(=O)O)OCC1c2ccccc2-c2ccccc21 [Compound No. 14, (S)-2-(9-fluorenylmethoxycarbonylamino)-4-(4-bromobenzenesulfonylamino)-butanoic Acid] | 
13 µM | O=C(N[C@@H](CCCCNS(=O)(=O)c1ccc(Br)cc1)C(=O)O)OCC1c2ccccc2-c2ccccc21 [Compound No. 16, Nε-(4-bromobenzenesulfonyl)-Nα-(9-fluorenylmethoxycarbonyl)-L-lysine] | 
7.7 µM | O=C(O)[C@H](CCCCNS(=O)(=O)c1ccc(Br)cc1)NS(=O)(=O)c1ccc(Br)cc1 [Compound No. 17, Nα,Nε-di-(4-bromobenzenesulfonyl)-L-lysine] | 
75 µM | O=C(N[C@@H](CNS(=O)(=O)c1ccc(Br)cc1)C(=O)O)OCC1c2ccccc2-c2ccccc21 [Compound No. 18, (S)-2-(9-fluorenylmethoxycarbonylamino)-3-(4-bromobenzenesulfonylamino)-propanoic Acid] | 
> 50 µM | O=C(N[C@@H](CCCCNS(=O)(=O)c1ccc(Br)cc1)C(=O)O)c1cnc2cc(C(F)(F)F)ccc2c1O [Compound No. 23, Nα-(4-hydroxy-7-trifluoromethylquinoline-3-carbonyl)-Nε-(4-bromobenzenesulfonyl)-L-lysine] | 
> 3.1 µM | CC(C)c1cc(C(C)C)c(S(=O)(=O)NCCCC[C@H](NC(=O)OCC2c3ccccc3-c3ccccc32)C(=O)O)c(C(C)C)c1 [Compound No. 25, Nε-(2,4,6-triisopropylbenzencsulfonyl)-Nα-(9-fluorenylmethoxycarbonyl)-L-lysine] | 
> 50 µM | Cc1cc(C)c(S(=O)(=O)NCCCC[C@H](NC(=O)OCC2c3ccccc3-c3ccccc32)C(=O)O)c(C)c1 [Compound No. 27, Nε-(2,4,6-trimethylbenzenesulfonyl)-Nα-(9-fluorenylmethoxycarbonyl)-L-lysine] | 
15 µM | O=C(N[C@@H](CCCCNS(=O)(=O)c1cccc2cccnc12)C(=O)O)OCC1c2ccccc2-c2ccccc21 [Compound No. 28, Nε-(8-quinolinesulfonyl)-Nα-(9-fluorenylmethoxycarbonyl)-L-lysine] | 
10.5 µM | O=C(Cc1c[nH]c2ccccc12)N[C@@H](CCCCNS(=O)(=O)c1ccc(Br)cc1)C(=O)O [Compound No. 29, Nα-(3-indoleacetyl)-Nε-(4-bromobenzenesulfonyl)-L-lysine] | 
71 µM | O=C(CC1c2ccccc2-c2ccccc21)N[C@@H](CCCCNS(=O)(=O)c1ccc(Br)cc1)C(=O)O [Compound No. 30, Nα-(9-fluorenemethylcarbonyl)-Nε-(4-bromobenzenesulfonyl)-L-lysine] | 
10 µM | O=C(N[C@@H](CCCCNS(=O)(=O)c1ccc2ccccc2c1)C(=O)O)OCC1c2ccccc2-c2ccccc21 [Compound No. 32, Nε-(2-naphthalenesulfonyl)-Nα-(9-fluorenylmethoxycarbonyl)-L-lysine] | 
24 µM | O=C(N[C@@H](CCCCNS(=O)(=O)c1ccc(Br)cc1)C(=O)O)C(c1ccccc1)c1ccccc1 [Compound No. 36, Nα-(diphenylacetyl)-Nε-(4-bromobenzenesulfonyl)-L-lysine] | 
> 50 µM | CC(C)CN(CCC[C@H](NC(=O)OCC1c2ccccc2-c2ccccc21)C(=O)O)S(=O)(=O)c1ccc(Br)cc1 [Compound No. 41, Nα-(9-fluorenylmethoxycarbonyl)-Nδ-isobutyl-Nδ-(4-bromobenzenesulfonyl)-L-ornithine] | 
0.0039 µM | Cc1ccc(S(=O)(=O)N(CC2CC2)[C@@H](CCCCNC(=O)OCC2c3ccccc3-c3ccccc32)C(=O)O)cc1 [Compound No. 43, Nα-cyclopropylmethyl-Nα-(4-methylbenzenesulfonyl)-Nε-(9-fluorenylmethoxycarbonyl)-L-lysine] | 

The remaining lines, values behind:

SMILES | Ki [1] | Ki
CC(C)CN(C(CCCCNC(=O)OCC1c2ccccc2-c2ccccc21)C(=O)O)S(=O)(=O)c1ccc(Cl)cc1 (racemic) [Compound No. 1, Nα-isobutyl-Nα-(4-chlorobenzenesulfonyl)-Nε-(9-fluorenylmethoxycarbonyl)-DL-lysine] | 0.0205 µM | 
Cc1ccc(S(=O)(=O)N(CC(C)C)C(CCCCNC(=O)OCC2c3ccccc3-c3ccccc32)C(=O)O)cc1 (racemic) [Compound No. 2, Nα-isobutyl-Nα-(4-methylbenzenesulfonyl)-Nε-(9-fluorenylmethoxycarbonyl)-DL-lysine] | 0.005 µM | 
CC(C)CN(C(CCCCNC(=O)OCC1c2ccccc2-c2ccccc21)C(=O)O)S(=O)(=O)c1ccc(F)cc1 (racemic) [Compound No. 3, Nα-isobutyl-Nα-(4-fluorobenzenesulfonyl)-Nε-(9-fluorenylmethoxycarbonyl)-DL-lysine] | 0.0174 µM | 
Cc1ccc(S(=O)(=O)N(CC(C)C)C(CCCNC(=O)OCC2c3ccccc3-c3ccccc32)C(=O)O)cc1 (racemic) [Compound No. 6, Nα-isobutyl-Nα-(4-methylbenzenesulfonyl)-Nδ-(9-fluorenylmethoxycarbonyl)-DL-ornithine] | 0.18 µM | 
Cc1ccc(S(=O)(=O)N(CC(C)C)C(CCCCNC(=S)CCc2ccccc2)C(=O)O)cc1 (racemic) [Compound No. 153, Nα-isobutyl-Nα-(4-methylbenzenesulfonyl)-Nε-dihydrothiocinnamoyi-DL-lysine] | 0.151 µM | 
Cc1ccc(S(=O)(=O)N(CC(C)C)C(CCCCN(CC(C)C)C(=O)CCc2ccccc2)C(=O)O)cc1 (racemic) [Compound No. 159, Nα,Nε-diisobutyl-Nα-(4-methylbenzenesulfonyl)-Nε-(3-phenylpropanoyl)-DL-lysine] | > 0.3 µM | 
CC(C)CN([C@@H](CCCCNC(=O)OCC1c2ccccc2-c2ccccc21)C(=O)O)S(=O)(=O)c1ccc(Br)cc1 [Compound No. 4, Nα-isobutyl-Nα-(4-bromobenzenesulfonyl)-Nε-(9-fluorenylmethoxycarbonyl)-L-lysine] | 0.0114 µM | 
COc1ccc(S(=O)(=O)N(CC(C)C)[C@@H](CCCCNC(=O)OCC2c3ccccc3-c3ccccc32)C(=O)O)cc1 [Compound No. 7] | 0.0106 µM | 
CC(C)CN([C@@H](CCCCNC(=O)OCC1c2ccccc2-c2ccccc21)C(=O)O)S(=O)(=O)c1cccc2ccccc12 [Compound No. 8, Nα-isobutyl-Nα-(1-naphthalenesulfonyl)-Nε-(9-fluorenylmethoxycarbonyl)-L-lysine] | 0.0549 µM | 
CC(C)CN([C@@H](CCCCNC(=O)OCC1c2ccccc2-c2ccccc21)C(=O)O)S(=O)(=O)c1ccc(C(C)(C)C)cc1 [Compound No. 10, Nα-isobutyl-Nα-(4-tert-butylbenzenesulfonyl)-Nε-(9-fluorenylmethoxycarbonyl)-L-lysine] |  | 0.257 µM
COC(=O)[C@H](CCCCNS(=O)(=O)c1ccc(Br)cc1)NC(=O)OCC1c2ccccc2-c2ccccc21 [Compound No. 15, Nα-(9-fluorenylmethoxycarbonyl)-Nε-(4-bromobenzenesulfonyl)-L-lysine Methyl Ester] | 47 µM | 
NC(=O)C(CCCCNS(=O)(=O)c1ccc(Br)cc1)NC(=O)OCC1c2ccccc2-c2ccccc21 [Compound No. 20, (2R,2S)-(9-fluorenylmethoxycarbonylamino)-6-(4-bromobenzenesulfonylamino)-1-hexanamide] | 23 µM | 
CC(C)CN(CCCC[C@H](NC(=O)OCC1c2ccccc2-c2ccccc21)C(=O)O)S(=O)(=O)c1ccc(Br)cc1 [Compound No. 21, Nα-(9-fluorenylmethoxycarbonyl)-Nε-isobutyl-Nε-(4-bromobenzenesulfonyl)-L-lysine] | 2 µM | 
O=C(N[C@H](CO)CCCCNS(=O)(=O)c1ccc(Br)cc1)OCC1c2ccccc2-c2ccccc21 [Compound No. 22, (2S)-(9-fluorenylmethoxycarbonylamino)-6-(4-bromobenzenesulfonylamino)-1-hexanol] | > 6 µM | 
O=C(N[C@@H](CCCCNS(=O)(=O)c1ccccc1Br)C(=O)O)OCC1c2ccccc2-c2ccccc21 [Compound No. 24, Nε-(2-bromobenzenesulfonyl)-Nα-(9-fluorenylmcthoxycarbonyl)-L-lysine] | 36 µM | 
O=C(N[C@@H](CCCCNS(=O)(=O)Cc1ccccc1)C(=O)O)OCC1c2ccccc2-c2ccccc21 [Compound No. 33, Nε-phenylmethylsulfonyl-Nα-(9-fluorenylmethoxycarbonyl)-L-lysine] | 20 µM | 
O=C(N[C@@H](CCCCNS(=O)(=O)c1cccc(C(F)(F)F)c1)C(=O)O)OCC1c2ccccc2-c2ccccc21 [Compound No. 34, Nε-(3-trifluoromethylbenzenesulfonyl)-Nα-(9-fluorenylmethoxycarbonyl)-L-lysine] | 22 µM | 
CC1(C)[C@@H]2CC[C@@]1(CS(=O)(=O)NCCCC[C@H](NC(=O)OCC1c3ccccc3-c3ccccc31)C(=O)O)C(=O)C2 [Compound No. 35, Nε-(1S)-(10-camphorsulfonyl)-Nα-(9-fluorenylmethoxycarbonyl)-L-lysine] | 33 µM | 
O=C(O)[C@H](CCCCNS(=O)(=O)c1ccc(Br)cc1)NC(=O)C(O)(c1ccccc1)c1ccccc1 [Compound No. 37, Nα-(diphenylhydroxyacetyl)-Nε-(4-bromobenzenesulfonyl)-L-lysine] | 54 µM | 
O=C(N[C@@H](CCCCNS(=O)(=O)c1ccc(Br)cc1)C(=O)O)C1c2ccccc2-c2ccccc21 [Compound No. 38, Nα-(9-fluorenecarbonyl)-Nε-(4-bromobenzenesulfonyl)-L-lysine] | 4.7 µM | 
Cc1ccc(S(=O)(=O)N(Cc2ccccc2)[C@@H](CCCCNC(=O)OCC2c3ccccc3-c3ccccc32)C(=O)O)cc1 [Compound No. 40, Nα-benzyl-Nα-(4-methylbenzenesulfonyl)-Nε-(9-fluorenylmethoxycarbonyl)-L-lysine] | 0.0196 µM | 
Cc1cc(C)c(S(=O)(=O)N(CC(C)C)[C@@H](CCCCNC(=O)OCC2c3ccccc3-c3ccccc32)C(=O)O)c(C)c1 [Compound No. 42, Nα-isobutyl-Nα-(2,4,6-trimethylbenzenesulfonyl)-Nε-(9-fluorenylmethoxycarbonyl)-L-lysine] | > 0.1 µM | 
